According to patent US20060116390A1, “Hepatitis c virus inhibitors” (priority 2003, published 2006):
Counter-ions that a name gives are not always drawn. Like-named read-outs stand apart in the source and are kept apart here.

Test system: HCV proteins in Rep5.1 cells (replicon cell line)
Test: Inhibitory activity of HCV: cell-based ELISA in replicon cell line Rep5.1 (decrease of HCV proteins)
Set-up: species or system hepatitis C virus
Description: In order to, screen and evaluate the anti-HCV therapeutic agents in cell level, the following experiments are carried out using a replicon cell line, Rep5.1 [Lohmann, et al., Replication of subgenomic hepatitis C virus RNAs in a hepatoma cell line. Science 285:110-113 (1999)].
Rep5.1 cells, the replicon cell line, are cultured in DMEM-10 containing 500 μg/ml of G418. The Rep5.1 cells in log phase are suspended by trypsin treatment, and 5000 cells are distributed to each well of a 96-well plate. After 4 hours when the cells are attached to the plate, the serially diluted drug is added to each well. After 48 hours, a part of the treated cells are observed by microscope, and MTT assay is carried out to evaluate the drug toxicity. The cytotoxicity is estimated in percentage based on the control containing no drug. After 72 hours, the remaining cells are fixed by methanol/acetone (50/50, v/v), and the decrease of HCV proteins is measured by using HCV antibody. The extent of decrease is estimated in percentage based on the control containing no drug, and the concentration of drug at which 50% of proteins is decreased is determined to be IC50. The compounds showing activity via this procedure are validated by Western blotting. In order to find out whether the decrease of HCV protein is related to the decrease of replicon RNA, Rep5.1 cell is treated with some selected drugs for 72 hours, RNA is purified, dot blotted, and hybridized with isotope labelled nucleic acid to determine the amounts of actin mRNA and replicon RNA, and finally the amount of RNA is compared.
Plasma samples from 300 persons positive to the hepatitis C antibody test were screened by antibody diagnosis kit produced by LG life Sciences Ltd. (LG HCD3.0 TMB) to select 40 plasma samples having high titer. Replicon cell line and Huh-7 cell line each were cultured in a 96-well cell culture plate, fixed by methanol/acetone (1:1) mixture, and blocked by 3% skimmed milk. The 40 plasma sanples selected above were 100-fold diluted and aided thereto, and the bound antibodies were probed by anti-Human goat antibody (Sigma) to which Horse Radish Peroxidase is attached. As a result, 12 plasma samples having low specificity to Huh-7 cell line, but high specificity to replicon cell line were obtained. These plasma samples were used in the following cell-based ELISA.
Rep5.1 cells were cultured in DMEM-10 containing 500 μg/ml of G418. The Rep5.1 cells in log phase were suspended by trypsin treatment, and 5000 cells were distributed to each well of a 96-well pate. After 4 hours for which the cells were attached to the plate, the serially diluted drug was added to each well. After 72 hours, the cells were fixed by methanol/acetone (50/50, v/v), and the decrease of HCV proteins was measured by using HCV antibody obtained as above. The extent of decrease was estimated in percentage based on the control containing no drug, and the concentration of drug at which 50% of proteins was decreased was determined to be IC50.

[1] = Hepatitis C virus, 72 h, Rep5.1 cells, 72 hours with drug, concentration at which 50% of HCV proteins was decreased, Table 2, read-out: IC50
[2] = Hepatitis C virus, 72 h, Rep5.1 cells, 72 hours with drug, decrease of HCV proteins measured by HCV antibody, Table 1, read-out: Level (IC50 values classified)
[3] = Rep5.1 cells, 72 hours with drug, concentration at which 50% of HCV proteins was decreased, Table 2, read-out: IC50

Structure (SMILES) | IC50 [1] [nM] | IC50 [2] [nM] | IC50 [3] [nM] | IC50 (Hepatitis C virus, 72 h) [nM] | IC50 (Hepatitis C virus, 72 h, read-out: Level (IC50 values classified)) [nM]
CC1=C(C(=O)OCCc2ccc(N3CCCC3)c([N+](=O)[O-])c2)C(CO)NC(=S)N1 (stereo not shown) [99″, 4-Hydroxymethyl-6-methyl-2-thioxo-1,2,3,4-tetrahydro-pyrimidine-5-carboxylic acid 2-(3-nitro-4-pyrrolidin-1-yl-phenyl)-ethyl ester] | 1000 | < 1000 | – | – | –
CC1=C(C(=O)OCc2ccc(OC(=O)OC(C)(C)C)cc2)CNC(=S)N1 [Compound 228, 6-methyl-2-thioxo-1,2,3,4-tetrahydro-pyrimidine-5-carboxylic acid 4-t-butoxycarbonyloxy-benzyl ester] | 23000 | 10000 to 20000 | – | – | –
COC(=O)C(C)(C)COC(=O)OCC1NC(=S)NC(C)=C1C(=O)OCCc1cccc(Cl)c1 (stereo not shown) [82″, 4-(2-methoxycarbonyl-2-methyl-propoxycarbonyloxymethyl)-6-methyl-2-thioxo-1,2,3,4-tetrahydro-pyrimidine-5-carboxylic acid 2-(3-chloro-phenyl)-ethyl ester] | 800 | < 1000 | – | – | –
CCOC(=O)CCCCCOC(=O)C1=C(C)NC(=S)NC1 [Compound 197, 6-methyl-2-thioxo-1,2,3,4-tetrahydro-pyrimidine-5-carboxylic acid 5-ethoxycarbonyl-pentyl ester] | > 100000 | > 20000 | – | – | –
O=C(OCCCc1cccs1)C1=CNC(=S)NC1CF (stereo not shown) [16′, 4-fluoromethyl-2-thioxo-1,2,3,4-tetrahydro-pyrimidine-5-carboxylic acid 3-thiophen-2-yl-propyl ester] | 2000 | 1000 to 10000 | – | – | –
CC1=C(C(=O)OCc2ccc(C)c([N+](=O)[O-])c2)CNC(=S)N1 [Compound 136, 6-methyl-2-thioxo-1,2,3,4-tetrahydro-pyrimidine-5-carboxylic acid 3-nitro-4-methyl-benzyl ester] | 600 | < 1000 | – | – | –
CCOc1ccccc1CCOC(=O)C1=C(C)NC(=S)NC1CS(=O)(=O)C(C)(C)C (stereo not shown) [30″, 6-methyl-4-(2-methyl-propane-2-sulfonylmethyl)-2-thioxo-1,2,3,4-tetrahydro-pyrimidine-5-carboxylic acid 2-(2-ethoxy-phenyl)-ethyl ester] | 50000 | > 20000 | – | – | –
COc1ccccc1COC(=O)C1=C(C)NC(=S)NC1 [Compound 65, 6-methyl-2-thioxo-1,2,3,4-tetrahydro-pyrimidine-5-carboxylic acid 2-methoxy-benzyl ester] | 1000 | < 1000 | – | – | –
COCCN(C)c1ccc(CCOC(=O)C2=C(C)NC(=S)NC2)cc1 [Compound 209, 6-methyl-2-thioxo-1,2,3,4-tetrahydro-pyrimidine-5-carboxylic acid 2-{4-[(2-methoxy-ethyl)-methyl-amino]-phenyl}-ethyl ester] | < 400 | < 1000 | – | – | –
CC1=C(C(=O)OCCc2ccsc2)C(C(F)(F)F)NC(=S)N1 (stereo not shown) [8′, 6-methyl-2-thioxo-4-trifluoromethyl-1,2,3,4-tetrahydro-pyrimidine-5-carboxylic acid 2-thiophen-3-yl-ethyl ester] | 21000 | > 20000 | – | – | –
CC1=C(C(=O)OC2Cc3cscc3C2)CNC(=S)N1 [11′, 6-methyl-2-thioxo-1,2,3,4-tetrahydro-pyrimidine-5-carboxylic acid 5,6-dihydro-4H-cyclopenta[c]thiophen-5-yl ester] | 77000 | > 20000 | – | – | –
CCCCCCC(C)OC(=O)C1=C(C)NC(=S)NC1 (stereo not shown) [Compound 35, 6-methyl-2-thioxo-1,2,3,4-tetrahydro-pyrimidine-5-carboxylic acid 1-methyl-heptyl ester] | < 500 | < 1000 | – | – | –
CC(=O)OCC1NC(=S)NC(C)=C1C(=O)OCCc1cccc(Cl)c1 (stereo not shown) [44″, 4-acetoxymethyl-6-methyl-2-thioxo-1,2,3,4-tetrahydro-pyrimidine-5-carboxylic acid 2-(3-chloro-phenyl)-ethyl ester] | 5000 | 1000 to 10000 | – | – | –
C=CCOCC#CCOC(=O)C1=C(C)NC(=S)NC1 [Compound 245, 6-methyl-2-thioxo-1,2,3,4-tetrahydro-pyrimidine-5-carboxylic acid 4-allyloxy-but-2-inyl ester] | – | – | 2700 | – | –
CC1=C(C(=O)OCc2cc(Br)cs2)CNC(=S)N1 [Compound 204, 6-methyl-2-thioxo-1,2,3,4-tetrahydro-pyrimidine-5-carboxylic acid 4-bromo-thiophen-2-ylmethyl ester] | < 400 | < 1000 | – | – | –
C=CCN(C)c1ccc(CCOC(=O)C2=C(C)NC(=S)NC2CO)cc1[N+](=O)[O-] (stereo not shown) [96″, 4-Hydroxymethyl-6-methyl-2-thioxo-1,2,3,4-tetrahydro-pyrimidine-5-carboxylic acid 2-[4-(allyl-methyl-amino)-3-nitro-phenyl]-ethyl ester] | 900 | < 1000 | – | – | –
CC1=C(C(=O)OCCc2ccc([N+](=O)[O-])cc2)CNC(=S)N1 [Compound 119, 6-methyl-2-thioxo-1,2,3,4-tetrahydro-pyrimidine-5-carboxylic acid 2-(4-nitro-phenyl)-ethyl ester] | 1300 | 1000 to 10000 | – | – | –
CC1=C(C(=O)OCCCc2ccc(F)cc2)CNC(=S)N1 [Compound 103, 6-methyl-2-thioxo-1,2,3,4-tetrahydro-pyrimidine-5-carboxylic acid 3-(4-fluoro-phenyl)-propyl ester] | < 400 | < 1000 | – | – | –
CC1=C(C(=O)OCCc2c(F)c(F)c(F)c(F)c2F)C(CF)NC(=S)N1 (stereo not shown) [60′, 4-fluoromethyl-6-methyl-2-thioxo-1,2,3,4-tetrahydro-pyrimidine-5-carboxylic acid 2-pentafluorophenyl-ethyl ester] | – | – | 4000 | – | –
CC1=C(C(=O)OCc2cc(Cl)ccc2[N+](=O)[O-])C(CO)NC(=S)N1 (stereo not shown) [47″, 4-hydroxymethyl-6-methyl-2-thioxo-1,2,3,4-tetrahydro-pyrimidine-5-carboxylic acid 5-chloro-2-nitro-benzyl ester] | > 100000 | > 20000 | – | – | –
CC1=C(C(=O)OCCc2cccc(Cl)c2)C(COC(=O)NCCN(C)C)NC(=S)N1 (stereo not shown) [86″, 4-(2-dimethylamino-ethylcarbamoyloxymethyl)-6-methyl-2-thioxo-1,2,3,4-tetrahydro-pyrimidine-5-carboxylic acid 2-(3-chloro-phenyl)-ethyl ester trifluoroacetate] | – | – | – | 700 | < 1000
CC1=C(C(=O)OCc2ccc(F)cc2Cl)C(CF)NC(=S)N1 (stereo not shown) [79′, 4-fluoromethyl-6-methyl-2-thioxo-1,2,3,4-tetrahydro-pyrimidine-5-carboxylic acid 2-chloro-4-fluoro-benzyl ester] | 1000 | < 1000 | – | – | –
CC1=C(C(=O)OCCOCCc2ccsc2)CNC(=S)N1 [54′, 6-methyl-2-thioxo-1,2,3,4-tetrahydro-pyrimidine-5-carboxylic acid 2-(2-thiophen-3-yl-ethoxy)-ethyl ester] | 5000 | 1000 to 10000 | – | – | –
COc1cscc1CCOC(=O)C1=C(C)NC(=S)NC1CF (stereo not shown) [41′, 4-fluoromethyl-6-methyl-2-thioxo-1,2,3,4-tetrahydro-pyrimidine-5-carboxylic acid 2-(4-methoxy-thiophen-3-yl)-ethyl ester] | 15000 | 10000 to 20000 | – | – | –
COc1ccc(Cl)cc1COC(=O)C1=C(C)NC(=S)NC1CF (stereo not shown) [36′, 4-fluoromethyl-6-methyl-2-thioxo-1,2,3,4-tetrahydro-pyrimidine-5-carboxylic acid 5-chloro-2-methoxy-benzyl ester] | 1700 | 1000 to 10000 | – | – | –
CC1=C(C(=O)OCc2cnc(-c3cccs3)s2)CNC(=S)N1 [Compound 210, 6-methyl-2-thioxo-1,2,3,4-tetrahydro-pyrimidine-5-carboxylic acid 2-thiophen-2-yl-thiazol-5-ylmethyl ester] | 3000 | 1000 to 10000 | – | – | –
CC1=C(C(=O)OCc2nc3ccccc3s2)CNC(=S)N1 [Compound 226, 6-methyl-2-thioxo-1,2,3,4-tetrahydro-pyrimidine-5-carboxylic acid benzothiazol-2-ylmethyl ester] | 2200 | 1000 to 10000 | – | – | –
